Values of other authors in US20030083469A1, “Allosteric control of nuclear hormone receptors” (The Salk Institute for Biological Studies, priority 1995, published 2003).

Assays:
RAR = details: Allegretto et al., 1993, Allenby et al.; cited from earlier work
RXR = details: Allegretto et al., 1993, Allenby et al.; cited from earlier work

CC1=C(/C=C/C(C)=C\C=C\C(C)=C\C(=O)O)C(C)(C)CCC1 [9-cis RA, 9-cis retinoic acid]
binding affinity (RAR): high affinity
binding affinity (RXR): high affinity
